Values quoted from earlier work, collected in patent US11357752B2, “Carolacton and derivatives thereof for use in the treatment of cell proliferation disorders” (Helmholtz-Zentrum für Infektionsforschung GmbH, priority 2017, dated 2022).

Test system: MTHFD1 or MTHFD2
Settings: prior-art inhibitor, poor activity; cited from earlier work

**Q.** With `Nc1nc2c(c(=O)[nH]1)N1C(=O)N(c3ccc(C(=O)N[C@@H](CCC(=O)O)C(=O)O)cc3)CC1CN2` (stereo partly shown) [LY345899] as the molecule, how does the IC50 read?
**A.** Its IC50 is 128 µM.
